Data as given in article PMC4285699 (Journal of molecular biology, 2009).

Tests used:
[1] = target: T1, HIV-1 RT-associated RNase H activity (polymerase-independent) (Human immunodeficiency virus type 1 group M subtype B, UniProt P03366); type: biochemical; conditions: PFA 200 μM; chimeric substrate PBS-14r8d, 0-40 min
[2] = target: HIV-1 RT-associated RNase H activity (Human immunodeficiency virus type 1 group M subtype B, UniProt P03366); test: Pre-steady-state single turnover RNase H reactions; type: biochemical; conditions: PFA 0-10 μM, dTMP-terminated primer
p66^501BpF/p51 RT = p66^501BpF/p51 RT (Human immunodeficiency virus type 1, UniProt P03366, Y1100X); test: FRET-based RNase H assay; type: biochemical, HIV-1
p66^AzF/p51 RT = test: FRET-based RNase H assay; type: biochemical, HIV-1; conditions: azido function at position 501 (AzF)
[3] = target: T1, HIV-1 RT-associated RNase H activity (polymerase-independent); test: biochemical; conditions: IC50, primary cleavage, 600 nM chimeric hybrid labelled at 3' DNA end, 50 nM RT

SMILES	Inhibition of polymerase-independent RNase H cleavage [1]	Position of RNase H cleavage with increasing ligand concentration [2]	IC50 (p66^501BpF/p51 RT) [µM]	Effect of mutation on β-thujaplicinol sensitivity (p66^AzF/p51 RT)	IC50 [3] [µM]
O=C(O)P(=O)(O)O [PFA, Phosphonoformic acid]	does not inhibit RNase H cleavage	biased cleavage to position -19			
CC(C)c1ccc(O)c(=O)c(O)c1 [β-thujaplicinol]			> 300	little to no effect	> 25
